In patent US12157730B2, “Heteroaryl derivative, method for producing same, and pharmaceutical composition comprising same as effective component” (VORONOI INC., priority 2019, dated 2024):

What follows are compounds tested against T1, Ba/F3 cell EGFR Exon20 ins NPH (Homo sapiens, UniProt P00533, INS773NPH) (assay: Ba/F3 cell proliferation suppression, EGFR Exon20 ins NPH). Settings: GI50 class; Ba/F3 cell line with NPH inserted at Exon20 of EGFR; 72 hours.
T1 construct: expressed in transfected cells; host or cells: Ba/F3
Type: cell-based
Method in brief: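 After 72 h compound exposure (twelve 3-fold steps, 0.3 nM–50 um final), live cells were measured by CellTiter-Glo luminescence and growth expressed as % of control to derive GI50. Cells were seeded at 3000–5000 per well a day earlier; Ba/F3 medium contained IL-3; three repeats.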

Compound	Ba/F3 (NPH) Activity
C=CC(=O)Nc1cc(Nc2cc(N3OCC[C@@H]3c3cccc(Cl)c3Cl)ncn2)c(OC)cc1N1CCC(N2C[C@@H]3C[C@H]2CN3CC)CC1 [compound 607, N-(5-((6-((R)-3-(2,3-dichlorophenyl)isoxazolidine-2-yl)pyrimidine-4-yl)amino)-2-(4-((1S,4S)-5-ethyl-2,5-diazabicyclo[2.2.1]heptane-2-yl)piperidine-1-yl)-4-methoxyphenyl) acrylamide]	A (GI50 < 50 nM)
C#Cc1cccc([C@H]2CCON2c2cc(Nc3cc(NC(=O)C=C)c(N4CCC(N5CCN(C6CCC6)CC5)CC4)cc3OC)ncn2)c1 [Example 191, N-(2-(4-(4-cyclobutylpiperazine-1-yl)piperidine-1-yl)-5-((6-((R)-3-(3-ethynylphenyl)isoxazolidine-2-yl)pyrimidine-4-yl)amino)-4-methoxyphenyl) acrylamide]	A (GI50 < 50 nM)
COc1cc(N2CCOCC2)c(NC(=O)/C=C/CN(C)C)cc1Nc1cc(N2OCC[C@@H]2c2cc(F)cc(F)c2)ncn1 [compound 397, N-(5-((6-((R)-3-(3,5-difluorophenyl)isoxazolidine-2-yl)pyrimidine-4-yl)amino)-4-methoxy-2-morpholinophenyl)-(E)-4-(dimethylamino)but-2-enamide]	A (GI50 < 50 nM)
COc1cc(OCCC(C)(C)OC)c(NC(=O)/C=C/CN(C)C)cc1Nc1cc(N2OCC[C@@H]2c2cc(F)cc(F)c2)ncn1 [compound 496, N-(5-((6-((R)-3-(3,5-difluorophenyl)isoxazolidine-2-yl)pyrimidine-4-yl)amino)-4-methoxy-2-(3-methoxy-3-methylbutoxy)phenyl)-(E)-4-(dimethylamino) but-2-enamide]	C (500 nM ≤ GI50 < 5000 nM)
C=CC(=O)Nc1cc(Nc2cc(N3OCC[C@@H]3c3ccccc3)ncn2)c(OC)cc1N1CCN(C2COC2)CC1 [Example 18]	A (GI50 < 50 nM)
C=CC(=O)Nc1cc(Nc2cc(N3OCC[C@@H]3c3cccc(C#N)c3)ncn2)c(OC)cc1N1CCC(N2CCC(F)(F)CC2)CC1 [compound 433, N-(5-((6-((R)-3-(3-cyanophenyl)isoxazolidine-2-yl)pyrimidine-4-yl)amino)-2-(4,4-difluoro-[1,4'-bipiperidine]-1'-yl)-4-methoxyphenyl) acrylamide]	A (GI50 < 50 nM)
C=CC(=O)Nc1cc(Nc2cc(N3OCC[C@@H]3c3cc(F)ccc3F)ncn2)c(OC)cc1N(C)CCN(C)C [compound 882, N-(5-((6-((R)-3-(2,5-difluorophenyl)isoxazolidine-2-yl)pyrimidine-4-yl)amino)-2-((2-(dimethylamino)ethyl)(methyl)amino)-4-methoxyphenyl) acrylamide]	A (GI50 < 50 nM)
C=CC(=O)Nc1cc(Nc2cc(N3OCC[C@@H]3c3ccc(Cl)c(F)c3)ncn2)c(OC)cc1N1CCN(C)CC1 [compound 795, N-(5-((6-((R)-3-(4-chloro-3-fluorophenyl)isoxazolidine-2-yl)pyrimidine-4-yl)amino)-4-methoxy-2-(4-methylpiperazine-1-yl)phenyl)acrylamide]	B (50 nM ≤ GI50 < 500 nM)
C=CC(=O)Nc1cc(Nc2cc(N3OCC[C@@H]3c3ccc(F)c(Cl)c3)ncn2)c(OC)cc1N(C)CCOC [compound 904, N-(5-((6-((R)-3-(3-chloro-4-fluorophenyl)isoxazolidine-2-yl)pyrimidine-4-yl)amino)-4-methoxy-2-((2-methoxyethyl)(methyl)amino)phenyl) acrylamide]	A (GI50 < 50 nM)
C=CC(=O)Nc1cc(Nc2cc(N3OCC[C@@H]3c3cccc(Cl)c3Cl)ncn2)c(OC)cc1N1C[C@@H]2C[C@H]1CN2CC [compound 524, N-(5-((6-((R)-3-(2,3-dichlorophenyl)isoxazolidine-2-yl)pyrimidine-4-yl)amino)-2-((1S,4S)-5-ethyl-2,5-diazabicyclo[2.2.1]heptane-2-yl)-4-methoxyphenyl) acrylamide]	A (GI50 < 50 nM)

Further lines, results first:

Ba/F3 (NPH) Activity	Compound
A (GI50 < 50 nM)	C=CC(=O)Nc1cc(Nc2cc(N3OCC[C@@H]3Cc3cccc(Cl)c3Cl)ncn2)c(OC)cc1N1CCC(N2CCN(C3CC3)[C@@H](C)C2)CC1 [compound 981, N-(2-(4-((S)-4-cyclopropyl-3-methylpiperazine-1-yl)piperidine-1-yl)-5-((6-((S)-3-(2,3-dichlorobenzyl)isoxazolidine-2-yl)pyrimidine-4-yl)amino)-4-methoxyphenyl) acrylamide]
A (GI50 < 50 nM)	C=CC(=O)Nc1cc(Nc2cc(N3OCC[C@@H]3c3cccc(Cl)c3F)ncn2)c(OC)cc1N1CCC(N2CCN(C3CCCC3)CC2)CC1 [Example 101, N-(5-((6-((R)-3-(3-chloro-2-fluorophenyl)isoxazolidine-2-yl)pyrimidine-4-yl)amino)-2-(4-(4-cyclopentylpiperazine-1-yl)piperidine-1-yl)-4-methoxyphenyl) acrylamide]
A (GI50 < 50 nM)	C=CC(=O)Nc1cc(Nc2cc(N3OCC[C@@H]3c3cccc(C)c3F)ncn2)c(OC)cc1N1CCC(N2C[C@@H](C)N(C3CC3)C[C@H]2C)CC1 [Example 124, N-(2-(4-((2R,5R)-4-cyclopropyl-2,5-dimethylpiperazine-1-yl)piperidine-1-yl)-5-((6-((R)-3-(2-fluoro-3-methylphenyl)isoxazolidine-2-yl)pyrimidine-4-yl)amino)-4-methoxyphenyl) acrylamide]
A (GI50 < 50 nM)	C=CC(=O)Nc1cc(Nc2cc(N3OCC[C@@H]3c3cccc(Cl)c3F)ncn2)c(OC)cc1N1CCC(N2CCN(C3CC3)[C@H](C)C2)CC1 [Example 180, N-(5-((6-((R)-3-(3-chloro-2-fluorophenyl)isoxazolidine-2-yl)pyrimidine-4-yl)amino)-2-(4-((R)-4-cyclopropyl-3-methylpiperazine-1-yl)piperidine-1-yl)-4-methoxyphenyl) acrylamide]
A (GI50 < 50 nM)	C=CC(=O)Nc1cc(Nc2cc(N3OCC[C@@H]3c3cccc(F)c3F)ncn2)c(OC)cc1N1CCC(N2CCN(C3COC3)CC2)CC1 [Example 195, N-(5-((6-((R)-3-(2,3-difluorophenyl)isoxazolidine-2-yl)pyrimidine-4-yl)amino)-4-methoxy-2-(4-(4-(oxetane-3-yl)piperazine-1-yl)piperidine-1-yl)phenyl) acrylamide]
C (500 nM ≤ GI50 < 5000 nM)	C=CC(=O)Nc1cc(Nc2cc(N3OCC[C@@H]3c3ccc(F)c(F)c3F)ncn2)c(OC)cc1N1CC[C@H](N2CCOCC2)C1 [compound 624, N-(4-methoxy-2-((S)-3-morpholinopyrolidine-1-yl)-5-((6-((R)-3-(2,3,4-trifluorophenyl)isoxazolidine-2-yl)pyrimidine-4-yl)amino)phenyl)acrylamide]
A (GI50 < 50 nM)	C=CC(=O)Nc1cc(Nc2cc(N3OCC[C@@H]3c3ccc(F)cc3F)ncn2)c(OC)cc1N1CCC(N2CCC(N(C)C)CC2)CC1 [compound 478, N-(5-((6-((R)-3-(2,4-difluorophenyl)isoxazolidine-2-yl)pyrimidine-4-yl)amino)-2-(4-(dimethylamino)-[1,4'-bipiperidine]-1'-yl)-4-methoxyphenyl) acrylamide]
A (GI50 < 50 nM)	C=CC(=O)Nc1cc(Nc2cc(N3OCC[C@@H]3c3cccc(Cl)c3F)ncn2)c(OC)cc1N1CCC(N2CCN(CC)CC2)CC1 [compound 913, N-(5-((6-((R)-3-(3-chloro-2-fluorophenyl)isoxazolidine-2-yl)pyrimidine-4-yl)amino)-2-(4-(4-ethylpiperazine-1-yl)piperidine-1-yl)-4-methoxyphenyl) acrylamide]
A (GI50 < 50 nM)	C=CCN1CCN(C2CCN(c3cc(OC)c(Nc4cc(N5OCC[C@@H]5c5ccc(Cl)cc5F)ncn4)cc3NC(=O)C=C)CC2)CC1 [Example 211, N-(2-(4-(4-allylpiperazine-1-yl)piperidine-1-yl)-5-((6-((R)-3-(4-chloro-2-fluorophenyl)isoxazolidine-2-yl)pyrimidine-4-yl)amino)-4-methoxyphenyl) acrylamide]
A (GI50 < 50 nM)	C=CC(=O)Nc1cc(Nc2cc(N3OCC[C@@H]3c3cc(F)cc(F)c3)ncn2)c(OC)cc1N1CCC(N2C[C@H](C)N(C3CC3)C[C@H]2C)CC1 [Example 107, N-(2-(4-((2R,5S)-4-cyclopropyl-2,5-dimethylpiperazine-1-yl)piperidine-1-yl)-5-((6-((R)-3-(3,5-difluorophenyl)isoxazolidine-2-yl)pyrimidine-4-yl)amino)-4-methoxyphenyl) acrylamide]
A (GI50 < 50 nM)	C=CC(=O)Nc1cc(Nc2cc(N3OCC[C@@H]3c3ccc(Cl)cc3)ncn2)c(OC)cc1N1CCC(N2CCN(C(C)=O)CC2)CC1 [compound 806, N-(2-(4-(4-acetylpiperazine-1-yl)piperidine-1-yl)-5-((6-((R)-3-(4-chlorophenyl)isoxazolidine-2-yl)pyrimidine-4-yl)amino)-4-methoxyphenyl) acrylamide]
A (GI50 < 50 nM)	C=CC(=O)Nc1cc(Nc2cc(N3OCC[C@@H]3c3c(F)ccc(F)c3F)ncn2)c(OC)cc1N1CCC(N2CCN(C3CC3)[C@H](C)C2)CC1 [Example 166, N-(2-(4-((R)-4-cyclopropyl-3-methylpiperazine-1-yl)piperidine-1-yl)-4-methoxy-5-((6-((R)-3-(2,3,6-trifluorophenyl)isoxazolidine-2-yl)pyrimidine-4-yl)amino)phenyl)acrylamide]
B (50 nM ≤ GI50 < 500 nM)	C=CC(=O)Nc1cc(Nc2cc(N3OCC[C@@H]3c3cc(F)cc(Cl)c3F)ncn2)c(OC)cc1N1CCN(C2CC2)CC1 [compound 939, N-(5-((6-((R)-3-(3-chloro-2,5-difluorophenyl)isoxazolidine-2-yl)pyrimidine-4-yl)amino)-2-(4-cyclopropylpiperazine-1-yl)-4-methoxyphenyl) acrylamide]
